Source: patent publication EP0101441B1, “ANTI-VIRAL COMPOSITIONS” (SYNTEX (U.S.A.) INC., priority 1982, dated 1983)

How the values were obtained:
HSV-2-EL4 = assay: Viral plaque titration in human fetal fibroblasts (HFF); format: cell-based, Herpes simplex virus; conditions: for VT (virus titre): HFF cells, no-drug control VT 750; for FTR (fold titre reduction): ratio of control virus titre to that of the test
HSV-2-EL6 = assay: as above; format: cell-based, Herpes simplex virus; conditions: for VT (virus titre): HFF cells; for FTR (fold titre reduction): ratio of control virus titre to that of the test
HSV-1-PATTON [1] = assay: as above; format: cell-based, Herpes simplex virus; conditions: Example 2, drug µg/ml: G* 0.7, PFA 80, combination 0.7+80; for VT (virus titre): HFF cells, no-drug control VT 3400; for FTR (fold titre reduction): ratio of control virus titre to that of the test
[2] = cited from earlier work
HSV-1-227 = assay: Viral plaque titration in human fetal fibroblasts (HFF); format: cell-based, Herpes simplex virus; conditions: Example 3, drug µg/ml: G* 2.0, PAA 80, combination 2.0+80; for VT (virus titre): HFF cells, no-drug control VT 28; for FTR (fold titre reduction): ratio of control virus titre to that of the test
Procedure: (§1) Human fetal fibroblasts (HFF) derived from fetal tissues were used in this study. Cells were grown and maintained in Basal Medium Eagle (BME) supplemented with 0.112% sodium bicarbonate, 2 mML- glutamine, 2 mg% Neomycin and 20% (vol/vol) calf serum.
(§2) A viral plaque titration method (Roizman and Roane, 1961) was used to determine the titer of the HSV strain. Tissue culture dishes (35 by 10 mm, Corning) were seeded with cells and used for assays when they were approximately 75% monolayer. Volumes (0.2 ml) of logarithmic dilutions of the virus strain were inoculated onto each of two tissue culture dishes and adsorbed for 1 hr with intermittent shaking, the inoculum was removed and 2 ml of 20% BME containing 0.5% human immune serum globulin was added. After a 48 h incubation period at 36°C in a 5% C02 atmosphere, the overlay m'edium was removed, and the cell sheets were stained with a 0.05% aqueous crystal violet solution. The plaque numbers were counted with the aid of a Nikon profile projector which magnified the dishes 10x. Duplicate results were averaged, and the number of plaque-forming units (PFU) was calculated. The virus titre is thus expressed as a number of plaque forming units to be seen after growth under these conditions.
(§3) In order to make comparisons between the activities of the various drugs and combinations, experiments were conducted by plaque titration to determine for each drug its viral ED-50 (i.e. the concentration thereof which inhibits HSV plaque formation by 50% in the HFF cells, as compared with cell cultures in the absence of the drug). For this purpose, tissue culture dishes (35 by 10 mm) with HFF cell monolayers at 75% confluence were inoculated with approximately 50 plaque-forming units of virus per 0.2 ml, and the virus was allowed to adsorb for 1 hr with intermittent shaking. After removal of the inoculum, 2 ml of 20% BME with 0.5% immune globulin and threefold dilutions of the appropriate drug were added to duplicate dishes. One set of dishes received no drug and was later used for the "no-drug control". After a 48 h incubation period at 36°C in a 5% C02 atmosphere, the overlay medium was removed, the cells were stained as described above, and plaques were counted. After averaging the counts of duplicate plates, the fraction of plaques emerging in the presence of each drug dilution was calculated as a percent of the control. Each drug titration was plotted on semilogarithmic graph paper, with the number of plaques per dish as the vertical axis and the drug concentration as the horizontal axis. The viral ED50 was calculated as that amount of drug per ml of overlay medium that inhibited plaque numbers by 50%, compared to a control (no drug), and this was read off the graphic plot of the data.
(§4) Three combinations of the drugs were then tested for activity by viral plaque titration, at concentrations which were multiples of the ED50 of the individual drugs. When G^*, BVDU or ACG was present, a concentration ten times that of its ED50 was used in the combination. This was intended to ensure a concentration sufficiently high to limit the numbers of partially drug-resistant virus plaques to a small fraction, in respect of each drug of the combination. In respect of PAA, a concentration of five times the ED50 was used, to avoid cell toxicity problems. The drugs were individually plaque-titrated at the same concentrations, for comparison purposes.
(§5) The results are given in the first Table headed "HSV-1-PATTON". The column headed "VT" gives the virus titre, expressed in plaque-forming units (PFU) per ml, x10^5; of course, the lower the figure, the greater the inhibitory, anti-viral effect of the tested drug (D). The column headed "FTR" gives the fold titre reduction which is the ratio of virus titre for the control, i.e. no drug, to that of the given test. […]

HSV-1-PATTON [3] = assay: as above; format: cell-based, Herpes simplex virus; conditions: Example 1, drug µg/ml: G* 1.2, BVDU 0.11, ACG 2.0, PAA 250, same in combinations; for VT (virus titre): HFF cells, no-drug control VT 147; for FTR (fold titre reduction): ratio of control virus titre to that of the test
Procedure: as §1, §2, §3, §4, §5

HSV-2-EL1 = assay: as above; format: cell-based, Herpes simplex virus; conditions: Example 3, drug µg/ml: G* 2.0, PAA 76, combination 2.0+76; for VT (virus titre): HFF cells, no-drug control VT 170; for FTR (fold titre reduction): ratio of control virus titre to that of the test
HSV-2-EL3 = assay: as above; format: cell-based, Herpes simplex virus; conditions: Example 3, drug µg/ml: G* 2.0, PAA 82, combination 2.0+82; for VT (virus titre): HFF cells, no-drug control VT 77; for FTR (fold titre reduction): ratio of control virus titre to that of the test
HSV-1-EL11 = assay: as above; format: cell-based, Herpes simplex virus; conditions: Example 3, drug µg/ml: G* 0.4, PAA 25, combination 0.4+25; for VT (virus titre): HFF cells, no-drug control VT 8.0; for FTR (fold titre reduction): ratio of control virus titre to that of the test
[4] = Example 2, drug µg/ml: G* 3.0, PFA 80, combination 3.0+80
[5] = Example 2, no-drug control VT 150, drug µg/ml: G* 0.7, PFA 80, combination 0.7+80
[6] = Example 2, drug µg/ml: G* 0.7, PFA 80, combination 0.7+80
[7] = Example 3, drug µg/ml: G* 2.0, PAA 90, combination 2.0+90
[8] = Example 3, no-drug control VT 180, drug µg/ml: G* 0.6, PAA 90, combination 0.6+90
[9] = Example 3, drug µg/ml: G* 0.6, PAA 90, combination 0.6+90

## O=C(O)P(=O)(O)O [PFA, phosphonoformic acid]
HSV-2-EL4; [4]
  VT (virus titre): 0.28 PFU per ml, x10^5
  FTR (fold titre reduction): 2,700
HSV-2-EL6; [5]
  VT (virus titre): 48 PFU per ml, x10^5
HSV-2-EL6; [6]
  FTR (fold titre reduction): 3.1
HSV-1-PATTON [1]
  VT (virus titre): 750 PFU per ml, x10^5
  FTR (fold titre reduction): 4.5
[2]; drug concentrations in excess of 100 mM
  skin harm of topical formulation: do not appear harmful

## O=C(O)CP(=O)(O)O [PAA, phosphonoacetic acid]
HSV-1-227
  VT (virus titre): 1.1 PFU per ml, x10^5
  FTR (fold titre reduction): 26
HSV-1-PATTON [3]
  VT (virus titre): 3.2 PFU per ml, x10^5
  FTR (fold titre reduction): 50
HSV-2-EL4; [7]
  VT (virus titre): 0.10 PFU per ml, x10^5
  FTR (fold titre reduction): 7,500
HSV-2-EL6; [8]
  VT (virus titre): 31.0 PFU per ml, x10^5
HSV-2-EL6; [9]
  FTR (fold titre reduction): 5.8
HSV-2-EL1
  VT (virus titre): 0.34 PFU per ml, x10^5
  FTR (fold titre reduction): 500
HSV-2-EL3
  VT (virus titre): 0.36 PFU per ml, x10^5
  FTR (fold titre reduction): 210
HSV-1-EL11
  VT (virus titre): 2.8 PFU per ml, x10^5
  FTR (fold titre reduction): 2.9
[2]
  drug concentrations in topical formulation reported as skin irritant: > 100000 µM

## O=c1[nH]c(=O)n([C@H]2C[C@H](O)[C@@H](CO)O2)cc1/C=C/Br [BVDU, bromovinyl-deoxyuridine]
HSV-1-PATTON [3]
  VT (virus titre): 2.1 PFU per ml, x10^5
  FTR (fold titre reduction): 70

## Nc1nc2c(ncn2COCCO)c(=O)[nH]1 [ACG, 9 - [2 - hydroxyethoxymethyl]guanine]
HSV-1-PATTON [3]
  VT (virus titre): 4.7 PFU per ml, x10^5
  FTR (fold titre reduction): 31

## Nc1nc2c(ncn2COC(CO)CO)c(=O)[nH]1 [G*, 9 - [[2 - hydroxy - 1 - (hydroxymethyl)ethoxy]methyl]guanine]
HSV-1-227
  VT (virus titre): 0.25 PFU per ml, x10^5
  FTR (fold titre reduction): 110
HSV-1-PATTON [3]
  VT (virus titre): 1.1 PFU per ml, x10^5
  FTR (fold titre reduction): 130
HSV-2-EL4; [4]
  VT (virus titre): 21 PFU per ml, x10^5
  FTR (fold titre reduction): 36
HSV-2-EL4; [7]
  VT (virus titre): 5.9 PFU per ml, x10^5
  FTR (fold titre reduction): 130
HSV-2-EL6; [5]
  VT (virus titre): 40 PFU per ml, x10^5
HSV-2-EL6; [6]
  FTR (fold titre reduction): 3.8
HSV-2-EL6; [8]
  VT (virus titre): 0.90 PFU per ml, x10^5
HSV-2-EL6; [9]
  FTR (fold titre reduction): 200
HSV-2-EL1
  VT (virus titre): 8.9 PFU per ml, x10^5
  FTR (fold titre reduction): 19
HSV-2-EL3
  VT (virus titre): 10 PFU per ml, x10^5
  FTR (fold titre reduction): 7.7
HSV-1-EL11
  VT (virus titre): 0.37 PFU per ml, x10^5
  FTR (fold titre reduction): 22
HSV-1-PATTON [1]
  VT (virus titre): 140 PFU per ml, x10^5
  FTR (fold titre reduction): 24
